The structures appear in SMILES notation.

In the assay the target is T1, human TLR8 (Homo sapiens, UniProt Q9NR97).
T1 construct: host or cells: HEK293 (HEK-Blue hTLR8)
T1 sequence (Q9NR97 27-1041): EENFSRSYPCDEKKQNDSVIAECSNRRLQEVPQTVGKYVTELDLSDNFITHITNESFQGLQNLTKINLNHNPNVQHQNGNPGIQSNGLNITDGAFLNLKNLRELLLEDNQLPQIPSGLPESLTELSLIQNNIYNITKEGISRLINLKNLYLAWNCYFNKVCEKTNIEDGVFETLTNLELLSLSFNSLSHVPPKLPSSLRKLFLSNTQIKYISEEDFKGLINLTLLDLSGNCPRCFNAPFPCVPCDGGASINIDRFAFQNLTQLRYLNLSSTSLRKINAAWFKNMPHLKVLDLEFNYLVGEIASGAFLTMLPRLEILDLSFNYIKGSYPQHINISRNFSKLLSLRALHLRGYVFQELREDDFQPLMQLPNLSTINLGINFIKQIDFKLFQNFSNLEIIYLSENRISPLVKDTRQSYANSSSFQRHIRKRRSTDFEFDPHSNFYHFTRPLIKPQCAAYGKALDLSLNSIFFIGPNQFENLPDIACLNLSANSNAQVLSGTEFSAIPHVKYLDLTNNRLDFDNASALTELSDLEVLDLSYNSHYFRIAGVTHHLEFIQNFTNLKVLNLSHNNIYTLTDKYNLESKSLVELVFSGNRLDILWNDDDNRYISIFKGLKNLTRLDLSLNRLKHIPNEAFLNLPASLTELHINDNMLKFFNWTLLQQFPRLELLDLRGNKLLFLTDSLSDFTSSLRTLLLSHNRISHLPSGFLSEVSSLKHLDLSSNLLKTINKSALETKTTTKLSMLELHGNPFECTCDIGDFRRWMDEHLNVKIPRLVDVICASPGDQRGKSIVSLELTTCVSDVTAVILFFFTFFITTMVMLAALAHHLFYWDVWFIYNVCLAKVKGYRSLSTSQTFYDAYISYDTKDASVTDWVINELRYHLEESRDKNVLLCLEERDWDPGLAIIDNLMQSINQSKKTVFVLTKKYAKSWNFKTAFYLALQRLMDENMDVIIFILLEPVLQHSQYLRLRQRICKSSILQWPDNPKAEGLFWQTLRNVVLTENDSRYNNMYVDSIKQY
As to the kind of experiment: HEK293-Blue-hTLR-8 cells assay (SEAP reporter, R848 stimulation). The assay is classed as cell-based. Particulars: HEK293-Blue-hTLR8 cells, R848, 20 hrs; read-out: HEK/hTLR8 IC50. The text has this: HEK293-Blue-hTLR-8 Cells Assay:
A stable HEK293-Blue-hTLR-8 cell line was purchased from InvivoGen (Cat. #: hkb-ht1r8, San Diego, Calif., USA). These cells were originally designed for studying the stimulation of human TLR8 by monitoring the activation of NF-κB. A SEAP (secreted embryonic alkaline phosphatase) reporter gene was placed under the control of the IFN-β minimal promoter fused to five NF-κB and AP-1-binding sites. The SEAP was induced by activating NF-κB and AP-1 via stimulating HEK-Blue hTLR8 cells with TLR8 ligands. Therefore the reporter expression was declined by TLR8 antagonist under the stimulation of a ligand, such as R848, for incubation of 20 hrs. The cell culture supernatant SEAP reporter activity was determined using QUANTI-Blue™ kit (Cat. #: rep-qb1, Invivogen, San Diego, Ca, USA) at a wavelength of 640 nm, a detection medium that turns purple or blue in the presence of alkaline phosphatase.
HEK293-Blue-hTLR8 cells were incubated at a density of 250,000˜450,000 cells/mL in a volume of 170 μL in a 96-well plate in Dulbecco's Modified Eagle's medium (DMEM) containing 4.5 g/L glucose, 50 U/mL penicillin, […], […], 2 mM L-glutamine, 10% (v/v) heat-inactivated fetal bovine serum with addition of 20 μL test compound in a serial dilution in the presence of final DMSO at 1% and 10 μL of 60 uM R848 in above DMEM, perform incubation under 37° C. in a CO2 incubator for 20 hrs. Then 20 μL of the supernatant from each well was incubated with 180 μL Quanti-blue substrate solution at 37° C. for 2 hrs and the absorbance was read at 620˜655 nm using a spectrophotometer. The signaling pathway that TLR8 activation leads to downstream NF-κB activation has been widely accepted, and therefore similar reporter assay was modified for evaluating TLR8 antagonist.
For the molecule `CO[C@H]1CN(c2nc(C)cc(N3CCN(C[C@H]4CN(c5ccc(C#N)c6nccnc56)C[C@@H](C)O4)CC3)n2)C[C@@H]1N` [Example 106, 8-[(2S,6R)-2-[[4-[2-[(3S,4S)-3-amino-4-methoxy-pyrrolidin-1-yl]-6-methyl-pyrimidin-4-yl]piperazin-1-yl]methyl]-6-methyl-morpholin-4-yl]quinoxaline-5-carbonitrile], the IC50 is 1 nM. Under `C[C@@H]1CN(c2ccc(C#N)c3nccnc23)C[C@H](CN2CCN(c3ccnc(N4C[C@H](N)[C@@H](F)C4)n3)CC2)O1` [Example 107, 8-[(2S,6R)-2-[[4-[2-[(3S,4S)-3-amino-4-fluoro-pyrrolidin-1-yl]pyrimidin-4-yl]piperazin-1-yl]methyl]-6-methyl-morpholin-4-yl]quinoxaline-5-carbonitrile] stands 1 nM. As for `C[C@@H]1CN(c2ccc(C#N)c3nccnc23)C[C@H](CN2CCN(c3ccnc(N4C[C@@H](N)[C@@H](F)C4)n3)CC2)O1` [Example 108, 8-[(2S,6R)-2-[[4-[2-[(3R,4S)-3-amino-4-fluoro-pyrrolidin-1-yl]pyrimidin-4-yl]piperazin-1-yl]methyl]-6-methyl-morpholin-4-yl]quinoxaline-5-carbonitrile], the IC50 was 1 nM. With `COC1CCN(c2nccc(N3CCN(C[C@H]4CN(c5ccc(C#N)c6ncccc56)C[C@@H](C)O4)CC3)n2)CC1N` (stereo partly drawn) [Example 109, 5-[(2S,6R)-2-[[4-[2-(3-amino-4-methoxy-1-piperidyl)pyrimidin-4-yl]piperazin-1-yl]methyl]-6-methyl-morpholin-4-yl]quinoline-8-carbonitrile], the IC50 amounted to 2 nM.

On to `C[C@@H]1CN(c2ccc(C#N)c3ncccc23)C[C@H](CN2CCN(c3ccnc(N4C[C@H](N)[C@@H](F)C4)n3)CC2)O1` [Example 110, 5-[(2S,6R)-2-[[4-[2-[(3S,4S)-3-amino-4-fluoro-pyrrolidin-1-yl]pyrimidin-4-yl]piperazin-1-yl]methyl]-6-methyl-morpholin-4-yl]quinoline-8-carbonitrile], for which the IC50 came to 2 nM. In the case of `C[C@@H]1CN(c2ccc(C#N)c3nccnc23)C[C@H](CN2CCN(c3ccnc(N4CC[C@H](N)[C@H](F)C4)n3)CC2)O1` [Example 111, 8-[(2S,6R)-2-[[4-[2-[(3R,4S)-4-amino-3-fluoro-1-piperidyl]pyrimidin-4-yl]piperazin-1-yl]methyl]-6-methyl-morpholin-4-yl]quinoxaline-5-carbonitrile], the IC50 is 1 nM. `Cc1cc(N2CCN(C[C@H]3CN(c4ccc(C#N)c5nccnc45)C[C@@H](C)O3)CC2)nc(N2CC(N)C2)n1` [Example 112, 8-[(2S,6R)-2-[[4-[2-(3-aminoazetidin-1-yl)-6-methyl-pyrimidin-4-yl]piperazin-1-yl]methyl]-6-methyl-morpholin-4-yl]quinoxaline-5-carbonitrile]: the IC50 came out at 1 nM. In the case of `C[C@@H]1CN(c2ccc(C#N)c3nccnc23)C[C@H](CN2CCN(c3ccnc(N4CC[C@@H](N)[C@H](F)C4)n3)CC2)O1` [Example 113, 8-[(2S,6R)-2-[[4-[2-[(3R,4R)-4-amino-3-fluoro-1-piperidyl]pyrimidin-4-yl]piperazin-1-yl]methyl]-6-methyl-morpholin-4-yl]quinoxaline-5-carbonitrile], the IC50 turned out to be 1 nM. On to `Cc1cc(N2CCNCC2)nc(N2CCN(C[C@H]3CN(c4ccc(C#N)c5nccnc45)C[C@@H](C)O3)CC2)n1` [Example 114, 8-[(2R,6S)-2-methyl-6-[[4-(4-methyl-6-piperazin-1-yl-pyrimidin-2-yl)piperazin-1-yl]methyl]morpholin-4-yl]quinoxaline-5-carbonitrile], for which the IC50 was found to be 1 nM. The result for `Cc1cc(N2C[C@@H](N)[C@@H](F)C2)nc(N2CCN(C[C@H]3CN(c4ccc(C#N)c5nccnc45)C[C@@H](C)O3)CC2)n1` [Example 115, 8-[(2S,6R)-2-[[4-[4-[(3R,4S)-3-amino-4-fluoro-pyrrolidin-1-yl]-6-methyl-pyrimidin-2-yl]piperazin-1-yl]methyl]-6-methyl-morpholin-4-yl]quinoxaline-5-carbonitrile] reads 1 nM.

Values taken from patent US20210395239A1 (Hoffmann-La Roche Inc., priority 2018, published 2021).
